Laboratory results from patent publication US20100160178A1, “SYSTEM AND METHOD FOR PRESENTING DNA BINDING SPECIFICITIES USING SPECIFICITY LANDSCAPES” (priority 2008, published 2010).

What was measured:
[1] = system: duplex DNA microarray that displays the entire sequence space; test: CSI (cognate site identifier) array and specificity landscape of the polyamide; format: binding
Text: (§1) CSI arrays can display the entire sequence space for about 2-10 variable base pair positions. Additionally, CSI arrays can display the entire sequence space for more than 10 base pair positions. Data relating to the binding affinities between the binding molecule and a sample set of DNA sequences (“N-mers”) has been obtained from the CSI DNA microarrays, in which every N-mer sequence is correlated to a fluorescent intensity value. The fluorescent intensity value indicates the amount of interaction between a specific N-mer and the DNA-binding molecule of interest and is proportional to binding affinity. The affinity value is the form of an equilibrium association constant (KA), or a KD value may be converted to KA by the relationship of KA=1/KD. Any biochemical/biophysical technique, other than DNA microarrays, can be used to obtain binding affinities, but these affinities must be related to a specific DNA sequence to be appropriate input for the specificity landscape.
This particular approach is an example of the data input to the specificity landscape algorithm. In particular, the present approach provides a comprehensive and unbiased understanding of the sequence-specificity of DNA binding molecules. Structural DNA variants are all examined to explore the importance of DNA structure on cognate site recognition by these ligands (data not shown). This particular example examines sequences and structural preferences of a small molecule polyamide (ImImPy*Py-γ-PyPyPyPy-β-Dp) designed to recognize the sequence 5′-W-W-G-G-W-W-W-3′ (W=A or T). […] The more distorted, or non-duplex, the DNA becomes the less affinity the polyamide has for that particular DNA sequence. Based upon previous knowledge of this polyamide, the specificity landscape unexpectedly uncovered unique insight into the polyamide relating to sequence and structural specificity of the polyamide-DNA interactions. […] The relative affinity of a particular sequence is represented by the height of the peak. The landscape provides a valuable tool to researchers looking for both the consensus sequences as well as those with the highest affinity.
Each sequence on the array is given a z-score which indicates the probability of a sequence being preferentially bound by the polyamide. As such, each sequence on the array has an intensity denoting the affinity of the polyamide to the sequence. The z-score is calculated using Equation Set 1. The sequences in the highest z-score bins, or with the highest intensities, fit the 5′-W-W-G-G-W-W-W-3′
Z=|intensity−average|/standard deviation Equation Set 1
The cognate site identifier array is a high through put approach for providing a comprehensive profile of the binding properties of DNA-binding molecules. CSI arrays display every permutation of a duplex DNA sequence on a microfabricated array. The CSI is a standard type array where each square (microarray feature) is assigned a specific nucleotide sequence, which includes a linker and a palindromic sequence with a 3-5 nucleotide turn in the middle. This palindromic sequence forms a double-stranded DNA region comprised of, for example, 8 base pairs that represents a specific permutation of an 8mer sequence. The central region of the sequence is buried, by example all or a subset of, 8 base pairs for a given 8-mer sequence. Approximately one million of the same sequences are provided for each square, each being one of the possible 8-mer sequences. A fluorescently labeled compound or antibody is included. […]

[2] = system: every possible 9-mer DNA sequence; test: CSI array and specificity landscape of Nkx-2.5; format: binding
Text: as §1
The cognate site identifier array is a high through put approach for providing a comprehensive profile of the binding properties of DNA-binding molecules. CSI arrays display every permutation of a duplex DNA sequence on a microfabricated array. […]

DNA sequences = test: Specificity landscapes of DNA-binding proteins (FIGS. 8-10); conditions: circular specificity landscape

Molecule: ImImPy*Py-γ-PyPyPyPy-β-Dp [polyamide]
- base preference at position 5 [1]: prefers a T at position 5
- DNA conformer preference ([1]; B-form duplex vs structural DNA variants): prefers double-stranded DNA
- affinity across permutations of the consensus motif WWGGWWW ([1]; innermost ring (Ring 1) of landscape): does not bind all the permutations of the consensus motif (WWGGWWW) with equal affinity
- positions of the motif where mutations are tolerated ([1]; one mismatch ring): tolerates mutations at positions 1 and 3
- binding to non-B-form DNA bearing high affinity sequences ([1]; relative to the duplex): appreciable binding

Molecule: Nkx-2.5: Nk2 transcription factor related, locus 5; earliest heart lineage marker; mouse DNA-binding protein
- DNA binding motif from specificity landscape [2]: TNAAGTG and NTAAGTG
- binding of sequences identical to motif TTAAGTG ([2]; relative intensities, all possible 9-mers): bind well

Molecule: gata4: mouse protein gata4
- DNA sequence bound (DNA sequences): 5′-WGATAA-3′

B1: msn2: yeast protein msn2 (protein, UniProt P33748 1-704, looked up)
Zinc finger protein MSN2: MTVDHDFNSEDILFPIESMSSIQYVENNNPNNINNDVIPYSLDIKNTVLDSADLNDIQNQETSLNLGLPPLSFDSPLPVTETIPSTTDNSLHLKADSNKNRDARTIENDSEIKSTNNASGSGANQYTTLTSPYPMNDILYNMNNPLQSPSPSSVPQNPTINPPINTASNETNLSPQTSNGNETLISPRAQQHTSIKDNRLSLPNGANSNLFIDTNPNNLNEKLRNQLNSDTNSYSNSISNSNSNSTGNLNSSYFNSLNIDSMLDDYVSSDLLLNDDDDDTNLSRRRFSDVITNQFPSMTNSRNSISHSLDLWNHPKINPSNRNTNLNITTNSTSSSNASPNTTTMNANADSNIAGNPKNNDATIDNELTQILNEYNMNFNDNLGTSTSGKNKSACPSSFDANAMTKINPSQQLQQQLNRVQHKQLTSSHNNSSTNMKSFNSDLYSRRQRASLPIIDDSLSYDLVNKQDEDPKNDMLPNSNLSSSQQFIKPSMILSDNASVIAKVATTGLSNDMPFLTEEGEQNANSTPNFDLSITQMNMAPLSPASSSSTSLATNHFYHHFPQQGHHTMNSKIGSSLRRRKSAVPLMGTVPLTNQQNNISSSSVNSTGNGAGVTKERRPSYRRKSMTPSRRSSVVIESTKELEEKPFHCHICPKSFKRSEHLKRHVRSVHSNERPFACHICDKKFSRSDNLSQHIKTHKKHGDI
- DNA sequence bound (DNA sequences): 5′-ARGGG-3′
